Read-outs that look alike come from different tables or passages of the source.
What was measured:
human CaSR = tested on: human CaSR; set-up: method as in Nemeth et al., 2001; conditions: ref Nemeth et al., 2001; cited from earlier work
[1] = tested on: S. mansoni schistosomulae; assay: Phenotypic primary screen assay on schistosomulae (phenotype; viability by methylene blue dye exclusion); format: cell-based, Schistosoma mansoni
Summary of the method: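 Parasites lacking contraction/relaxation cycles and showing dark internal granulations counted as dead. Movement and body shape were compared with DMSO-treated controls under a stereo microscope at 24 h and at five days of exposure. Larvae came from infected snails shed under light for 2 h at 32 °C.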

[2] = set-up: method as in Rybczynska et al., 2006; conditions: 1 mg/kg, normotensive rats; ref Rybczynska et al., 2006; cited from earlier work
SmD2 = SmD2 (Schistosoma mansoni, UniProt G4LUJ1); assay: cell-based; format: cell-based
SmD2, sequence (G4LUJ1 entry or part of it): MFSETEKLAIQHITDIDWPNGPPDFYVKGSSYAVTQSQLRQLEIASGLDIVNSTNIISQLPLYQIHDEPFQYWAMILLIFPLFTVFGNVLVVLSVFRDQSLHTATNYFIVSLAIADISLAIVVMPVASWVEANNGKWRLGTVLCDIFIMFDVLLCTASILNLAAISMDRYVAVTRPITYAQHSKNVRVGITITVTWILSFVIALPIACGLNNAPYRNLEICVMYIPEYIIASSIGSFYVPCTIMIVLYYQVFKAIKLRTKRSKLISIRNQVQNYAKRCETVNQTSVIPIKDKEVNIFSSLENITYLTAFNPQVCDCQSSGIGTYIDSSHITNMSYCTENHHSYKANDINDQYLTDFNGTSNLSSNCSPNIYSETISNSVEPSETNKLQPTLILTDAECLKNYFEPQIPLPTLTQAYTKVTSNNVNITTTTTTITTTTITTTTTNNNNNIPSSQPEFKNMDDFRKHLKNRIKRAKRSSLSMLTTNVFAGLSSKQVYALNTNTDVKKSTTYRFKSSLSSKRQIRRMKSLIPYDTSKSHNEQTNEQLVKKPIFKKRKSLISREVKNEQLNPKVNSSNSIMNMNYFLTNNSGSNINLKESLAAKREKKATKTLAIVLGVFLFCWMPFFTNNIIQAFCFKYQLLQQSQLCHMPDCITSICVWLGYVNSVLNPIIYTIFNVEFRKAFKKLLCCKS

[3] = tested on: S. mansoni schistosomulae; assay: Phenotypic primary screen assay on schistosomulae (phenotype; viability by methylene blue dye exclusion); format: cell-based; conditions: Schistosoma mansoni; three-day-old schistosomulae, 10 μM, 24 h; calculated 5 days post compound exposure; read-out: Viability (%)
[4] = tested on: S. mansoni schistosomulae; assay: Motility assay on schistosomulae (pixel displacement, relative to DMSO control); format: cell-based, Schistosoma mansoni; conditions: for activity at 1 µM: Schistosoma mansoni, read-out: Fractional motility
Summary of the method: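 Motility was scored by pixel displacement from 1-min videos (10 frames/s) and compared with DMSO controls. Schistosomulae (200/well, Opti-MEM, 5% dialyzed FBS, no antibiotics) received compound at 1 or 10 μM for 24 h; selected hits were also followed at 1, 3, 6 and 12 h.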

S. mansoni adult worms = assay: Motility assay on adult parasites (pixel displacement, relative to DMSO control); format: cell-based, Schistosoma mansoni; conditions: 10 μM
Summary of the method: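 Unpaired adult worms from mice 6 weeks post-infection kept in OPTI-MEM with 5% dialyzed FBS and exposed to compounds at 1 and 10 μM for 24 h. Motility filmed 1 min at 10 frames/s, quantified by pixel displacement versus DMSO-treated worms; recovery followed up to five days after washout.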

SMILES: CC(C)(Cc1ccc2ccccc2c1)NC[C@@H](O)COc1cccc(Cl)c1C#N [NPS-2143]
- IC50 (human CaSR): 0.043 µM
- effect on viability of schistosomulae in words ([1]; 24 h incubation, five days): no effect on viability
- Phenotype ([1]; three-day-old schistosomulae, 10 μM, 24 h, estimated 5 days post compound exposure): big, granulated
- effect on blood pressure [2]: significantly increases blood pressure
- inhibition at 10 µM (SmD2; HEK293, SmD2 cells, 10 μM compound, 50 μM EPN, read-out: inhibition of EPN-evoked luminescence): 91.1%
- IC50 (SmD2; inhibition of EPN-evoked luminescence, concentration-response assay, read-out: IC50): 0.00253 ± 0.00028 µM
- viability at 10 µM [3]: 82%
- Fractional motility ([4]; 1h, D1, 10 µM): -0.86
- Fractional motility ([4]; 1h, D5, 10 µM): -0.00164
- Fractional motility ([4]; 3h, D1, 10 µM): 0.27
- Fractional motility ([4]; 3h, D5, 10 µM): -0.84
- Fractional motility ([4]; 6h, D1, 10 µM): 14.69
- Fractional motility ([4]; 6h, D5, 10 µM): -0.27
- Fractional motility ([4]; NPS-2143 and analogs, 24h, D1, 1 µM): -0.50
- Fractional motility ([4]; NPS-2143 and analogs, 24h, D1, 10 µM): 49.26
- Fractional motility ([4]; NPS-2143 and analogs, 24h, D5, 1 µM): -0.09
- Fractional motility ([4]; NPS-2143 and analogs, 24h, D5, 10 µM): -0.99
- activity at 1 µM ([4]; 120 h, Selleckchem customized library secondary screen, 24h, D5, 1 µM): -9%
- activity at 1 µM ([4]; Selleckchem customized library secondary screen, 24h, D1, 1 µM): -50%
- Fractional motility ([4]; Selleckchem customized library secondary screen, 24h, D1, 10 µM): 49.26
- Fractional motility ([4]; Selleckchem customized library secondary screen, 24h, D5, 10 µM): -0.99
- hypermotility relative to control ([4]; schistosomulae, after 24 h incubation): up to 50 fold
- motility phenotype in words ([4]; schistosomulae, long-term, five days after compound washout): complete paralysis
- Fractional motility (S. mansoni adult worms; adult female worms, D1): -0.33
- Fractional motility (S. mansoni adult worms; adult female worms, D5): -0.92
- Fractional motility (S. mansoni adult worms; adult male worms, D1): -0.52
- Fractional motility (S. mansoni adult worms; adult male worms, D5): -0.30
- Fractional motility (S. mansoni adult worms; secondary screen, D1, Female adult worms): -0.33
- Fractional motility (S. mansoni adult worms; secondary screen, D1, Male adult worms): -0.52
- Fractional motility (S. mansoni adult worms; secondary screen, D5, Female adult worms): -0.92
- Fractional motility (S. mansoni adult worms; secondary screen, D5, Male adult worms): -0.30
